# Measured values reported in patent US5585504A, “Process of making cox-2 inhibitors having a lactone bridge” (Merck & Co., Inc., priority 1994, dated 1996).
# Where two headings read alike, the source gives them in different places.
# System: carrageenan-induced paw edema
# Test: Rat paw edema assay (carrageenan)
# Assay type: in vivo, Male Sprague-Dawley rats
# Details: po, 1 hr before carrageenan, paw volume 3 hr after
# Method: Male Sprague-Dawley rats (150-200g) were fasted overnight and were given po either vehicle (5% tween 80 or 1% methocel) or a test compound at 9-10 am. One hr later, a line was drawn using a permanent marker at the level above the ankle in one hind paw to define the area of the paw to be monitored. The paw volume (VOh) was measured using a plethysmometer (Ugo-Basile,Italy) based on the principle of water displacement. The animals were then injected subplantarly with 50 ul of a 1% carrageenan solution in saline (FMC Corp, Maine) into the paw using an insulin syringe with a 25-gauge needle (i.e. 500 ug carrageenan per paw). Three hr later, the paw volume (V3h) was measured and the increases in paw volume (V3h -VOh) were calculated. The animals were euthanized by CO2 aphyxiation and the absence or presence of stomach lesions scored. Stomach scores were expressed as the sum of total lesions in mm. Paw edema data were compared with the vehicle-control group and percent inhibition calculated taking the values in the control group as 100%. […] All treatment groups were coded to eliminate observer bias.
compound,measurement,setting,value
"COc1ccc2c(c1)c(CC(=O)O)c(C)n2C(=O)c1ccc(Cl)cc1 [Indomethacin, reference compound]",ED30,read-out: ED30,1 mg/kg
CS(=O)(=O)c1ccc(C2=C(c3ccc(F)c(Br)c3)C(=O)OC2)cc1,ED30,"Rattus norvegicus, 3 h, read-out: ED30 (Table I, column head not given)",~1 mg/kg
CS(=O)(=O)c1ccc(C2=C(c3ccc(Cl)c(Cl)c3)C(=O)OC2)cc1,"ED30 (Table I, column head not given)",,0.23 mg/kg
